Experimental data taken from patent publication US11674959B2, “Methods for identifying and preparing pharmaceutical agents for activating Tie1 and/or Tie2 receptors” (The Johns Hopkins University, priority 2017, dated 2023).

How the values were obtained:
[1] = target: T1, α5 and β1 integrin subunits (Homo sapiens, UniProt P05556+P08648); experiment: Duolink protein interaction analysis of α5 and β1 integrin in MEC monolayers; assay type: cell-based; conditions: 100 μM AXT107 compared to vehicle
T1 construct: host or cells: human dermal microvascular endothelial cells (MECs)
T1 sequence (P08648 42-894 limits assumed): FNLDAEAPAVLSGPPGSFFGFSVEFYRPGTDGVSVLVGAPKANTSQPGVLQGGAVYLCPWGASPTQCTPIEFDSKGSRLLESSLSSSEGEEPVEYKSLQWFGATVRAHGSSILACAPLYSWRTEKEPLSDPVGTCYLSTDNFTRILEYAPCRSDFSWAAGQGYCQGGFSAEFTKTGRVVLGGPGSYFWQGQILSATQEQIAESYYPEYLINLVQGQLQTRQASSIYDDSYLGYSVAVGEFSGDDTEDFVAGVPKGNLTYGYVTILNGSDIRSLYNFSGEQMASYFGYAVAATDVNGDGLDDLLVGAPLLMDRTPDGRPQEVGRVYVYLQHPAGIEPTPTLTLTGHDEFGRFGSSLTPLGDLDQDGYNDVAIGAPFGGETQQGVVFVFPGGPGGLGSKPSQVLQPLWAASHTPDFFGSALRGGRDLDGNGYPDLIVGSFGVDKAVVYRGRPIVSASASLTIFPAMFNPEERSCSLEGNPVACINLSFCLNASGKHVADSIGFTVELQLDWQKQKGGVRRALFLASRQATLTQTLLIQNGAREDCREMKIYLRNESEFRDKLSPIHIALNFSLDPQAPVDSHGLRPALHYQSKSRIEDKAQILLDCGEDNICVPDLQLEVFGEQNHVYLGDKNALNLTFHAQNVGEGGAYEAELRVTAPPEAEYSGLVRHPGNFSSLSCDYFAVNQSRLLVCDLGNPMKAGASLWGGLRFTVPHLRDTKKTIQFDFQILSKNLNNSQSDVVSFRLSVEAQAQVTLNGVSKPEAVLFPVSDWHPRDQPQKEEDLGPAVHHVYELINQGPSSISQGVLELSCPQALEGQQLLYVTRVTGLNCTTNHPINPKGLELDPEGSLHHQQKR
T1 sequence (P08648 895-1049 limits assumed): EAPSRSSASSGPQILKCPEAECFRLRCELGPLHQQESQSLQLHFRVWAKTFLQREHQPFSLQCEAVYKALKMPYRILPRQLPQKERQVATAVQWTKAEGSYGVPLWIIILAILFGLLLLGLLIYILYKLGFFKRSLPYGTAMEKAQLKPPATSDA
T1 sequence (P05556 21-798): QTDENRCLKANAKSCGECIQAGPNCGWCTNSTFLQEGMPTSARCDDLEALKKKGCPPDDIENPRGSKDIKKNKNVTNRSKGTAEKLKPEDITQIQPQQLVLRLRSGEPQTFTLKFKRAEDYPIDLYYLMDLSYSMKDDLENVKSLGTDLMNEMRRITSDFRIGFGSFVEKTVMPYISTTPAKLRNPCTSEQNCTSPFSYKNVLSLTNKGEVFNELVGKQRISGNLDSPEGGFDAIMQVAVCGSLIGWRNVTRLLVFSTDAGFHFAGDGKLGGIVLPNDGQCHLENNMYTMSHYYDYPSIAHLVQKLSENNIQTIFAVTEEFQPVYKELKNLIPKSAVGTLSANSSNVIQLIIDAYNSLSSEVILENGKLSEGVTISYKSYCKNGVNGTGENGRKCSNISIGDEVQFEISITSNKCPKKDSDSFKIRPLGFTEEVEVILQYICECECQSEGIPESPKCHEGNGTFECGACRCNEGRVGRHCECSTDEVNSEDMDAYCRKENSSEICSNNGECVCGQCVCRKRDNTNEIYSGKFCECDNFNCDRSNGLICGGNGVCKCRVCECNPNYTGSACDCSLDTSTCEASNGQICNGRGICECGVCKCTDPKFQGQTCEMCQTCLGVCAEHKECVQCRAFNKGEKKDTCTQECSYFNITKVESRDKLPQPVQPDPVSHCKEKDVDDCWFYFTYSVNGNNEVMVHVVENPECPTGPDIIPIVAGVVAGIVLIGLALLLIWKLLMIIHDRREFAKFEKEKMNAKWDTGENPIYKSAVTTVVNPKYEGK
Experimental: Additionally, changes in the interaction between the α5 and β1 subunits were further investigated using Duolink™ technology which can visualize individual interactions between α5 and β1 integrin subunits as distinct spots by fluorescence microscopy.
Glass bottom, 96-well plates were coated with FN1, seeded with MECs, as described above for the immunofluorescence experiments. After growing for forty-eight hours, cells were serum starved for three hours, treated with 100 μM AXT107 or DMSO vehicle for ninety minutes, washed twice with dPBS containing Ca^2+ and Mg^2+, and fixed in 10% neutral buffered formalin. Cells were blocked in 5% normal goat serum; 0.3% Triton X-100 in dPBS containing Ca^2+ and Mg^2+ for one hour and incubated overnight at 4° C. with rabbit anti-α5 integrin and mouse anti-β1 integrin antibodies in PBS containing Ca^2+ and Mg^2+ with 1% BSA and 0.1% Triton X-100. Interaction spots were developed using DUOLINK green detection reagent according to the manufacturer's instructions and detected using the BD pathway 855 system.

[2] = test system: phospho-Tie2 (Y992); experiment: Immunofluorescence of MEC monolayers for phospho-Tie2 (Y992); assay type: cell-based, human; conditions: 200 ng/ml Ang2 for fifteen minutes plus AXT107
Experimental: As such, subsequent experiments evaluate the effects of AXT107 at cell-cell junctions in MEC monolayers using immunofluorescence microscopy rather than at the EC-ECM interface.
(§1) Human dermal microvascular endothelial cells (Lonza) were maintained at 37° C. and 5% CO2 in EBM-2MV medium (Lonza) and used between passages two through seven. Where applicable, cells were serum starved in EBM-2 medium (Lonza) with no supplements. For FITC-Dextran permeability assays phenol red-free media were used to avoid auto-fluorescence. AXT107 were manufactured at New England Peptide by solid state synthesis, lyophilized, and dissolved in 100% DMSO.
Glass-bottomed, 96-well plates with half well size were coated with 10 μg/ml FN1 for two hours at 37° C. The FN1 solution was then removed by aspiration and the plate seeded with 4×10^3 MECs in EGM-2MV media. After twenty-four hours, the cells were washed once with dPBS containing Ca^2+ and Mg^2+ to remove dead cells and the cells were allowed to grow for an additional twenty-four hours. For three-hour duration treatments (i.e., VE-cadherin), cells were washed twice with dPBS containing Ca^2+ and Mg^2+ and serum starved in EBM-2 for ninety minutes. The media was then removed and the cells were treated for three hours with 100 μl of EBM-2 media containing 200 ng/ml Ang2 or PBS and varying concentrations of AXT107 or DMSO. […]

[3] = test system: Akt; experiment: Western blot of MEC lysates: Akt phosphorylation; assay type: cell-based, human; conditions: Ang2 and AXT107 treatment
Experimental: To investigate the effects of the integrin inhibitor AXT107 on Tie2 signaling, confluent monolayers of microvascular endothelial cells (MECs) on fibronectin-coated dishes were treated with various concentrations of AXT107 followed by exposure to the Tie2 ligands Ang1 or Ang2.
as §1, with “AXT107 were manufactured at New England Peptide by solid state synthesis, lyophilized, and dissolved in 100% DMSO.” left out
For Ang1/2 signaling investigations, cell culture dishes (10 cm diameter) were coated with 5 μg/ml fibronectin (FN1; Sigma-Aldrich, St. Louis, Mo.) for two hours at 37° C. […] Specific proteins were identified by Western blot, using the following primary antibodies: Cell Signaling—phospho-Tie2 (Y992) (Cat #: 4221), Tie2 (Cat #: 7403), phospho-Stat3 (Y705) (Cat #: 4113), Stat3 (Cat #: 4904), phospho-Akt (S473) (Cat #: 4058), Akt (Cat #: 9272), phospho-p44/42 MAPK (T202/Y204) (Cat #: 4370), p44/42 MAPK (Cat #: 4695); BD Transduction Laboratories—β1 integrin (Cat #: 610467); Millipore—α5 integrin (Cat #: AB1928) and detected with HRP-conjugated goat anti-rabbit and sheep anti-mouse secondary antibodies (GE healthcare).

In the case of LRRFSTAPFAFIDINDVINF [AXT107], the “Interactions between α5 and β1 integrin subunits (Duolink)” value [1] was “significantly reduced”, the “phospho-Tie2 fluorescence intensity and distribution” value [2] was “increased overall fluorescence intensity and redistributed phospho-Tie2 along cell-cell junctions and into large clusters” and the Akt phosphorylation [3] was “also increased”.
